Assay results as given in a compilation of properties of binary mixtures (doi:10.1039/b819795b).

Test: xn = mol fraction of the nth substance listed
Settings: 101 kPa

CCCCCCC + CCCCCCCC[n+]1ccn(C)c1.F[P-](F)(F)(F)(F)F
x1 = 1
Settings | speed of sound [m/s]
293.15 K | 1153
298.15 K | 1131
303.15 K | 1110

CCCCCC + CCCCCCCC[n+]1ccn(C)c1.F[P-](F)(F)(F)(F)F
x1 = 1
Settings | speed of sound [m/s]
293.15 K | 1100
298.15 K | 1078

CCCCCCCC[n+]1ccn(C)c1.F[P-](F)(F)(F)(F)F + CC(C)O
speed of sound [m/s]
Settings | 293.15 K | 298.15 K | 303.15 K
x1 = 0.0004 | 1156 | 1140 | 1121
x1 = 0.0009 | 1157 | 1140 | 1122
x1 = 0.0014 | 1157 | – | 1122
x1 = 0.0024 | 1158 | 1141 | 1123
x1 = 0.003 | 1158 | 1141 | 1123
x1 = 0.0053 | – | 1142 | 1125
x1 = 0.0098 | – | – | 1128
x2 = 0 | 1424 | 1408 | 1393
x2 = 0.0069 | – | 1407 | 1393
x2 = 0.0965 | 1412 | 1397 | 1384
x2 = 0.2012 | 1395 | 1382 | 1368
x2 = 0.304 | 1379 | 1366 | –
x2 = 0.4009 | 1364 | 1351 | 1339
x2 = 0.4943 | 1340 | – | –
x2 = 0.5989 | 1310 | 1296 | –
x2 = 0.6487 | – | 1279 | 1267
x2 = 0.6964 | – | 1261 | 1252
x2 = 0.7469 | – | – | 1235

CC(C)O + CCCCCCCC[n+]1ccn(C)c1.F[P-](F)(F)(F)(F)F
Settings | speed of sound [m/s]
293.15 K, x1 = 1 | 1156

CCCCCCCC[n+]1ccn(C)c1.F[P-](F)(F)(F)(F)F + CCCCCC
speed of sound [m/s]
Settings | x2 = 0 | x2 = 0.0468 | x2 = 0.0712 | x2 = 0.0893 | x2 = 0.1268
293.15 K | 1424 | 1408 | 1401 | 1394 | –
298.15 K | 1408 | 1393 | 1385 | – | 1364
303.15 K | 1393 | 1378 | – | 1364 | 1349

CCCCCCCC[n+]1ccn(C)c1.F[P-](F)(F)(F)(F)F + CCCCCCC
speed of sound [m/s]
Settings | x2 = 0 | x2 = 0.0074 | x2 = 0.0516 | x2 = 0.0803
293.15 K | 1424 | 1421 | 1406 | –
298.15 K | 1408 | – | 1391 | 1381
303.15 K | – | 1391 | – | 1366
